# Results taken from ChEMBL document CHEMBL3994621, “Curculactones A and B induced the differentiation of C3H10T1/2 and MC3T3-E1 cells to osteoblasts” (Bioorg Med Chem Lett, 2017).
# Activity calls are given as the source filed them. The rule behind the calls is not given here.
# Assays:
# [1] = tested on: MC3T3-E1; experiment: Induction of osteoblast differentiation in […] MC3T3-E1 cells assessed as increase in Runx2 mRNA expression at 5 uM after 4 days by RT-PCR method; type: functional, cell-based
# [2] = tested on: C3H 10T1/2; experiment: Induction of osteoblast differentiation in mouse C3H10T1/2 cells assessed as increase in Runx2 mRNA expression at 5 uM after 4 days by RT-PCR method; type: functional, cell-based
# [3] = tested on: MC3T3-E1; experiment: Induction of osteoblast differentiation in […] MC3T3-E1 cells assessed as increase in osteocalcin mRNA expression at 5 uM after 4 days by RT-PCR method; type: functional, cell-based
# [4] = tested on: C3H 10T1/2; experiment: Induction of osteoblast differentiation in mouse C3H10T1/2 cells assessed as increase in Dlx5 mRNA expression at 5 uM after 4 days by RT-PCR method; type: functional, cell-based
# [5] = tested on: MC3T3-E1; experiment: Induction of osteoblast differentiation in […] MC3T3-E1 cells assessed as increase in ALP activity at 5 uM after 4 days using BCIP/NBT liquid substrate; type: functional, cell-based
# [6] = tested on: C3H 10T1/2; experiment: Induction of osteoblast differentiation in mouse C3H10T1/2 cells assessed as increase in osteocalcin mRNA expression at 5 uM after 4 days by RT-PCR method; type: functional, cell-based
# [7] = tested on: MC3T3-E1; experiment: Induction of mineralization in […] MC3T3-E1 cells at 5 uM after 14 days by alizarin red S staining based assay; type: functional, cell-based
# [8] = tested on: MC3T3-E1; experiment: Induction of osteoblast differentiation in […] MC3T3-E1 cells assessed as increase in Dlx5 mRNA expression at 5 uM after 4 days by RT-PCR method; type: functional, cell-based
# [9] = tested on: C3H 10T1/2; experiment: Cytotoxicity against mouse C3H10T1/2 cells assessed as reduction in cell viability up to 5 uM after 48 hrs by MTT assay; type: cell-based; conditions: c3h 10t1/2, 48 h
# [10] = Solubility of the compound in DMSO; type: physicochemical
# [11] = tested on: C3H 10T1/2; experiment: Induction of osteoblast differentiation in mouse C3H10T1/2 cells assessed as increase in ALP mRNA expression at 5 uM after 4 days by RT-PCR method; type: functional, cell-based
# [12] = tested on: MC3T3-E1; experiment: Induction of osteoblast differentiation in […] MC3T3-E1 cells assessed as increase in ALP mRNA expression at 5 uM after 4 days by RT-PCR method; type: functional, cell-based
Compound,Activity [1],Activity [2],Activity [3],Activity [4],Activity [5],Activity [6],Activity [7],Activity [8],Activity [9],solubility [10],Activity [11],Activity [12]
COc1cc([C@H]2CC(=O)O[C@H]2C)ccc1O [CURCULACTONE A],Active,Active,Active,Active,Active,Active,Active,Active,Non-Toxic,Soluble,Active,Active
COc1cc(O)cc([C@@H]2CC(=O)O[C@H]2C)c1 [CURCULACTONE B],Active,Active,Active,Active,Active,Active,Active,Active,Non-Toxic,Soluble,Active,Active
